# Measurements taken from patent US9029337B2, “Modulation of factor 7 expression” (Isis Pharmaceuticals, Inc., priority 2007, dated 2015).
# Strand notation (5' to 3'): a small letter for the sugar, then the base; units joined by * are phosphorothioate-linked, units joined directly phosphodiester-linked; [ ] holds rarer units or linkages, { } end groups; capitals alone tell only the bases. e = 2'-O-(2-methoxyethyl) (MOE); [5mC] = 5-methylcytosine; d = 2'-deoxy (DNA)
# System: human Factor 7 mRNA
# Assay: Dose-dependent antisense inhibition of human Factor 7 in HepB3 cells, lipofectin
# Assay type: cell-based
# Conditions: 3.125 nM, HepB3 cells, approx. 16 hours (Table 14)
# In short: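 HepB3 cells (4,000/well) lipofectin-transfected with antisense oligonucleotide at 3.125 or 6.25 up to 100 nM for ~16 h. Factor 7 mRNA measured by real-time RT-PCR with primer probe set RTS 2927, adjusted to RIBOGREEN total RNA; expressed as percent inhibition versus untreated control cells.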
row,Substance,"percent inhibition of Factor 7 mRNA, relative to untreated control cells [%]"
1,422087 (antisense e[5mC]*eA*eT*eG*e[5mC]*dA*dT*dG*dG*dT*dG*dA*dT*dG*d[5mC]*eT*eT*e[5mC]*eT*eG) [compound 422087],14

# Same assay, conditions: 12.5 nM, HepB3 cells, approx. 16 hours (Table 14)
row,Substance,"percent inhibition of Factor 7 mRNA, relative to untreated control cells [%]"
1,422087 (antisense e[5mC]*eA*eT*eG*e[5mC]*dA*dT*dG*dG*dT*dG*dA*dT*dG*d[5mC]*eT*eT*e[5mC]*eT*eG) [compound 422087],51

# Same assay, conditions: 25 nM, HepB3 cells, approx. 16 hours (Table 14)
row,Substance,"percent inhibition of Factor 7 mRNA, relative to untreated control cells [%]"
1,422087 (antisense e[5mC]*eA*eT*eG*e[5mC]*dA*dT*dG*dG*dT*dG*dA*dT*dG*d[5mC]*eT*eT*e[5mC]*eT*eG) [compound 422087],73

# Same assay, conditions: 50 nM, HepB3 cells, approx. 16 hours (Table 14)
row,Substance,"percent inhibition of Factor 7 mRNA, relative to untreated control cells [%]"
1,422087 (antisense e[5mC]*eA*eT*eG*e[5mC]*dA*dT*dG*dG*dT*dG*dA*dT*dG*d[5mC]*eT*eT*e[5mC]*eT*eG) [compound 422087],83

# Same assay, conditions: 100 nM, HepB3 cells, approx. 16 hours (Table 14)
row,Substance,"percent inhibition of Factor 7 mRNA, relative to untreated control cells [%]"
1,422087 (antisense e[5mC]*eA*eT*eG*e[5mC]*dA*dT*dG*dG*dT*dG*dA*dT*dG*d[5mC]*eT*eT*e[5mC]*eT*eG) [compound 422087],90

# Same assay, conditions: HepB3 cells, approx. 16 hours (Table 14)
row,Substance,"percent inhibition of Factor 7 mRNA, relative to untreated control cells [%]"
1,422087 (antisense e[5mC]*eA*eT*eG*e[5mC]*dA*dT*dG*dG*dT*dG*dA*dT*dG*d[5mC]*eT*eT*e[5mC]*eT*eG) [compound 422087],24

# System: human Factor 7 mRNA
# Assay: Antisense inhibition of human Factor 7 mRNA in HepB3 cells, 50 nM antisense oligonucleotide, lipofectin
# Assay type: cell-based
# Conditions: Table 13 (microwalk), 50 nM, lipofectin, approximately 24 hours
# In short: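 Readout is percent reduction of Factor 7 message compared with untreated cells, after correction for total RNA content quantified by RIBOGREEN®. Cultures were seeded at 4,000 cells per well and treated for about 24 hours before RNA extraction.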
row,Substance,% Inhibition [%]
1,422087 (antisense e[5mC]*eA*eT*eG*e[5mC]*dA*dT*dG*dG*dT*dG*dA*dT*dG*d[5mC]*eT*eT*e[5mC]*eT*eG) [compound 422087],83

# System: human Factor 7 mRNA
# Assay: Dose-dependent antisense inhibition of human Factor 7 in HepB3 cells, electroporation
# Assay type: cell-based
# Conditions: 3.125 μM, approx. 16 hours (Table 15, Example 7)
# Procedure: (§1) The gapmers were also transfected via electroporation and their dose-dependent inhibition of human Factor 7 mRNA was measured. Cells were plated at a density of 20,000 cells per well and transfected via electroporation with 3.125 μM, 6.25 μM, 12.5 μM, 25 μM, 50 μM, and 100 μM concentrations of antisense oligonucleotide, as specified in Table 15. After a treatment period of approximately 16 hours, RNA was isolated from the cells and Factor 7 mRNA levels were measured by quantitative real-time PCR. Human Factor 7 primer probe set RTS 2927 was used to measure mRNA levels. Factor 7 mRNA levels were adjusted according to total RNA content, as measured by RIBOGREEN®. Results are presented as percent inhibition of Factor 7, relative to untreated control cells.
# as §1, with “Cells were” for “The gapmers were also transfected via electroporation and their dose-dependent inhibition of human Factor 7 mRNA was measured. Cells were”, “in […]. After a” for “in Table 15. After a”, “cells and human Factor 7” for “cells and Factor 7”
row,Substance,"percent inhibition of Factor 7 mRNA, relative to untreated control cells [%]"
1,422087 (antisense e[5mC]*eA*eT*eG*e[5mC]*dA*dT*dG*dG*dT*dG*dA*dT*dG*d[5mC]*eT*eT*e[5mC]*eT*eG) [compound 422087],22

# Same assay, conditions: 3.125 μM, approx. 16 hours (Table 16, Example 8 confirmation)
row,Substance,"percent inhibition of Factor 7 mRNA, relative to untreated control cells [%]"
1,422087 (antisense e[5mC]*eA*eT*eG*e[5mC]*dA*dT*dG*dG*dT*dG*dA*dT*dG*d[5mC]*eT*eT*e[5mC]*eT*eG) [compound 422087],19

# Same assay, conditions: 6.25 μM, approx. 16 hours (Table 15, Example 7)
row,Substance,"percent inhibition of Factor 7 mRNA, relative to untreated control cells [%]"
1,422087 (antisense e[5mC]*eA*eT*eG*e[5mC]*dA*dT*dG*dG*dT*dG*dA*dT*dG*d[5mC]*eT*eT*e[5mC]*eT*eG) [compound 422087],26

# Same assay, conditions: 6.25 μM, approx. 16 hours (Table 16, Example 8 confirmation)
row,Substance,"percent inhibition of Factor 7 mRNA, relative to untreated control cells [%]"
1,422087 (antisense e[5mC]*eA*eT*eG*e[5mC]*dA*dT*dG*dG*dT*dG*dA*dT*dG*d[5mC]*eT*eT*e[5mC]*eT*eG) [compound 422087],38

# Same assay, conditions: 12.5 μM, approx. 16 hours (Table 15, Example 7)
row,Substance,"percent inhibition of Factor 7 mRNA, relative to untreated control cells [%]"
1,422087 (antisense e[5mC]*eA*eT*eG*e[5mC]*dA*dT*dG*dG*dT*dG*dA*dT*dG*d[5mC]*eT*eT*e[5mC]*eT*eG) [compound 422087],48

# Same assay, conditions: 12.5 μM, approx. 16 hours (Table 16, Example 8 confirmation)
row,Substance,"percent inhibition of Factor 7 mRNA, relative to untreated control cells [%]"
1,422087 (antisense e[5mC]*eA*eT*eG*e[5mC]*dA*dT*dG*dG*dT*dG*dA*dT*dG*d[5mC]*eT*eT*e[5mC]*eT*eG) [compound 422087],66

# Same assay, conditions: 25 μM, approx. 16 hours (Table 15, Example 7)
row,Substance,"percent inhibition of Factor 7 mRNA, relative to untreated control cells [%]"
1,422087 (antisense e[5mC]*eA*eT*eG*e[5mC]*dA*dT*dG*dG*dT*dG*dA*dT*dG*d[5mC]*eT*eT*e[5mC]*eT*eG) [compound 422087],57

# Same assay, conditions: 25 μM, approx. 16 hours (Table 16, Example 8 confirmation)
row,Substance,"percent inhibition of Factor 7 mRNA, relative to untreated control cells [%]"
1,422087 (antisense e[5mC]*eA*eT*eG*e[5mC]*dA*dT*dG*dG*dT*dG*dA*dT*dG*d[5mC]*eT*eT*e[5mC]*eT*eG) [compound 422087],75

# Same assay, conditions: 50 μM, approx. 16 hours (Table 15, Example 7)
row,Substance,"percent inhibition of Factor 7 mRNA, relative to untreated control cells [%]"
1,422087 (antisense e[5mC]*eA*eT*eG*e[5mC]*dA*dT*dG*dG*dT*dG*dA*dT*dG*d[5mC]*eT*eT*e[5mC]*eT*eG) [compound 422087],72

# Same assay, conditions: 50 μM, approx. 16 hours (Table 16, Example 8 confirmation)
row,Substance,"percent inhibition of Factor 7 mRNA, relative to untreated control cells [%]"
1,422087 (antisense e[5mC]*eA*eT*eG*e[5mC]*dA*dT*dG*dG*dT*dG*dA*dT*dG*d[5mC]*eT*eT*e[5mC]*eT*eG) [compound 422087],80

# Same assay, conditions: 100 μM, approx. 16 hours (Table 15, Example 7)
row,Substance,"percent inhibition of Factor 7 mRNA, relative to untreated control cells [%]"
1,422087 (antisense e[5mC]*eA*eT*eG*e[5mC]*dA*dT*dG*dG*dT*dG*dA*dT*dG*d[5mC]*eT*eT*e[5mC]*eT*eG) [compound 422087],80

# Same assay, conditions: 100 μM, approx. 16 hours (Table 16, Example 8 confirmation)
row,Substance,"percent inhibition of Factor 7 mRNA, relative to untreated control cells [%]"
1,422087 (antisense e[5mC]*eA*eT*eG*e[5mC]*dA*dT*dG*dG*dT*dG*dA*dT*dG*d[5mC]*eT*eT*e[5mC]*eT*eG) [compound 422087],87
